Results published in ChEMBL document CHEMBL3792311, “In vitro and in vivo activity of ML302F: a thioenolate inhibitor of VIM-subfamily metallo -lactamases” (Medchemcomm, 2016).
Calls of active or inactive are those of the source. The rule behind the calls is not given here.

Columns and labels:
Escherichia coli [1] = assay: Antibacterial activity against VIM4 carbapenemase producing multidrug-resistant Escherichia coli 98 clinical isolate up to 512 mg/L by broth microtiter dilution method; type: functional, organism-based
Klebsiella pneumoniae [2] = assay: Potentiation of meropenem-induced antibacterial activity against VIM4 carbapenemase producing multidrug-resistant Klebsiella pneumoniae 101 clinical isolate at 1:8 meropenem:compound ratio by checkerboard method; type: functional
Klebsiella pneumoniae [3] = assay: Potentiation of meropenem-induced antibacterial activity against VIM4 carbapenemase producing multidrug-resistant Klebsiella pneumoniae 128 clinical isolate at 1:8 meropenem:compound ratio by checkerboard method; type: functional
Pseudomonas aeruginosa [4] = assay: Potentiation of meropenem-induced antibacterial activity against VIM2 carbapenemase producing multidrug-resistant Pseudomonas aeruginosa 50 clinical isolate at 1:8 meropenem:compound ratio by checkerboard method; type: functional
Klebsiella pneumoniae [5] = assay: Potentiation of meropenem-induced antibacterial activity against VIM4 carbapenemase producing multidrug-resistant Klebsiella pneumoniae 120 clinical isolate at 1:8 meropenem:compound ratio by checkerboard method; type: functional
Pseudomonas aeruginosa [6] = assay: Potentiation of meropenem-induced antibacterial activity against VIM2 carbapenemase producing multidrug-resistant Pseudomonas aeruginosa 47 clinical isolate at 1:8 meropenem:compound ratio by checkerboard method; type: functional
Pseudomonas aeruginosa [7] = assay: Antibacterial activity against VIM2 carbapenemase producing multidrug-resistant Pseudomonas aeruginosa 15 clinical isolate up to 512 mg/L by broth microtiter dilution method; type: functional, organism-based
Escherichia coli [8] = assay: Potentiation of meropenem-induced antibacterial activity against VIM4 carbapenemase producing multidrug-resistant Escherichia coli 98 clinical isolate at 1:8 meropenem:compound ratio by checkerboard method; type: functional
Pseudomonas aeruginosa [9] = assay: Potentiation of meropenem-induced antibacterial activity against VIM2 carbapenemase producing multidrug-resistant Pseudomonas aeruginosa 13 clinical isolate assessed as MIC of meropenem at 1:8 meropenem:compound ratio by broth microtiter dilution method; type: functional
Pseudomonas aeruginosa [10] = assay: Potentiation of meropenem-induced antibacterial activity against VIM2 carbapenemase producing multidrug-resistant Pseudomonas aeruginosa 12 clinical isolate at 1:8 meropenem:compound ratio by checkerboard method; type: functional
Pseudomonas aeruginosa [11] = assay: Potentiation of meropenem-induced antibacterial activity against VIM2 carbapenemase producing multidrug-resistant Pseudomonas aeruginosa 8 clinical isolate at 1:8 meropenem:compound ratio by checkerboard method; type: functional
Pseudomonas aeruginosa [12] = assay: Potentiation of meropenem-induced antibacterial activity against VIM2 carbapenemase producing multidrug-resistant Pseudomonas aeruginosa 9 clinical isolate assessed as MIC of meropenem at 1:8 meropenem:compound ratio by broth microtiter dilution method; type: functional
Pseudomonas aeruginosa [13] = assay: Potentiation of meropenem-induced antibacterial activity against VIM2 carbapenemase producing multidrug-resistant Pseudomonas aeruginosa 3 clinical isolate at 1:8 meropenem:compound ratio by checkerboard method; type: functional
Escherichia coli [14] = assay: Potentiation of meropenem-induced antibacterial activity against VIM4 carbapenemase producing multidrug-resistant Escherichia coli 98 clinical isolate infected in Galleria mellonella larvae assessed as survival rate at 4.8 mg/kg measured at 96 hrs; type: functional; details: Escherichia coli, 98, 96 h
Pseudomonas aeruginosa [15] = assay: Potentiation of meropenem-induced antibacterial activity against VIM2 carbapenemase producing multidrug-resistant Pseudomonas aeruginosa 11 clinical isolate assessed as MIC of meropenem at 1:8 meropenem:compound ratio by broth microtiter dilution method; type: functional
Pseudomonas aeruginosa [16] = assay: Potentiation of meropenem-induced antibacterial activity against VIM2 carbapenemase producing multidrug-resistant Pseudomonas aeruginosa 6 clinical isolate at 1:8 meropenem:compound ratio by checkerboard method; type: functional
Klebsiella oxytoca = assay: Antibacterial activity against VIM4 carbapenemase producing multidrug-resistant Klebsiella oxytoca 126 clinical isolate up to 512 mg/L by broth microtiter dilution method; type: functional, organism-based
Klebsiella pneumoniae [17] = assay: Potentiation of meropenem-induced antibacterial activity against VIM1 carbapenemase producing multidrug-resistant Klebsiella pneumoniae GR54 clinical isolate assessed as MIC of meropenem at 1:8 meropenem:compound ratio by broth microtiter dilution method; type: functional
Enterobacter cloacae [18] = assay: Potentiation of meropenem-induced antibacterial activity against VIM4 carbapenemase producing multidrug-resistant Enterobacter cloacae 102 clinical isolate at 1:8 meropenem:compound ratio by checkerboard method; type: functional
Klebsiella pneumoniae [19] = assay: Potentiation of meropenem-induced antibacterial activity against VIM1 carbapenemase producing multidrug-resistant Klebsiella pneumoniae GR54 clinical isolate at 1:8 meropenem:compound ratio by checkerboard method; type: functional
Klebsiella pneumoniae [20] = assay: Potentiation of meropenem-induced antibacterial activity against VIM4 carbapenemase producing multidrug-resistant Klebsiella pneumoniae 101 clinical isolate assessed as MIC of meropenem at 1:8 meropenem:compound ratio by broth microtiter dilution method; type: functional
Klebsiella pneumoniae [21] = assay: Potentiation of meropenem-induced antibacterial activity against VIM4 carbapenemase producing multidrug-resistant Klebsiella pneumoniae 196 clinical isolate at 1:8 meropenem:compound ratio by checkerboard method; type: functional
Klebsiella pneumoniae [22] = assay: Potentiation of meropenem-induced antibacterial activity against VIM4 carbapenemase producing multidrug-resistant Klebsiella pneumoniae 196 clinical isolate assessed as MIC of meropenem at 1:8 meropenem:compound ratio by broth microtiter dilution method; type: functional
Pseudomonas aeruginosa [23] = assay: Potentiation of meropenem-induced antibacterial activity against VIM2 carbapenemase producing multidrug-resistant Pseudomonas aeruginosa GR58 clinical isolate at 1:8 meropenem:compound ratio by checkerboard method; type: functional
Pseudomonas aeruginosa [24] = assay: Potentiation of meropenem-induced antibacterial activity against VIM2 carbapenemase producing multidrug-resistant Pseudomonas aeruginosa 50 clinical isolate assessed as MIC of meropenem at 1:8 meropenem:compound ratio by broth microtiter dilution method; type: functional
Pseudomonas aeruginosa [25] = assay: Antibacterial activity against VIM2 carbapenemase producing multidrug-resistant Pseudomonas aeruginosa GR57 clinical isolate up to 512 mg/L by broth microtiter dilution method; type: functional, organism-based
Pseudomonas aeruginosa [26] = assay: Potentiation of meropenem-induced antibacterial activity against VIM2 carbapenemase producing multidrug-resistant Pseudomonas aeruginosa 11 clinical isolate at 1:8 meropenem:compound ratio by checkerboard method; type: functional
Pseudomonas aeruginosa [27] = assay: Potentiation of meropenem-induced antibacterial activity against VIM2 carbapenemase producing multidrug-resistant Pseudomonas aeruginosa 8 clinical isolate assessed as MIC of meropenem at 1:8 meropenem:compound ratio by broth microtiter dilution method; type: functional
Pseudomonas aeruginosa [28] = assay: Antibacterial activity against VIM2 carbapenemase producing multidrug-resistant Pseudomonas aeruginosa 12 clinical isolate up to 512 mg/L by broth microtiter dilution method; type: functional, organism-based
Providencia stuartii [29] = assay: Antibacterial activity against VIM1 carbapenemase producing multidrug-resistant Providencia stuartii 67 clinical isolate up to 512 mg/L by broth microtiter dilution method; type: functional, organism-based
Pseudomonas aeruginosa [30] = assay: Antibacterial activity against VIM2 carbapenemase producing multidrug-resistant Pseudomonas aeruginosa 3 clinical isolate up to 512 mg/L by broth microtiter dilution method; type: functional, organism-based
Pseudomonas aeruginosa [31] = assay: Antibacterial activity against VIM2 carbapenemase producing multidrug-resistant Pseudomonas aeruginosa GR64 clinical isolate up to 512 mg/L by broth microtiter dilution method; type: functional, organism-based
Klebsiella pneumoniae [32] = assay: Potentiation of meropenem-induced antibacterial activity against VIM1 carbapenemase producing multidrug-resistant Klebsiella pneumoniae 177 clinical isolate assessed as MIC of meropenem at 1:8 meropenem:compound ratio by broth microtiter dilution method; type: functional
Providencia stuartii [33] = assay: Potentiation of meropenem-induced antibacterial activity against VIM1 carbapenemase producing multidrug-resistant Providencia stuartii 70 clinical isolate assessed as MIC of meropenem at 1:8 meropenem:compound ratio by broth microtiter dilution method; type: functional
Enterobacter cloacae [34] = assay: Antibacterial activity against VIM4 carbapenemase producing multidrug-resistant Enterobacter cloacae 102 clinical isolate up to 512 mg/L by broth microtiter dilution method; type: functional, organism-based
Providencia stuartii [35] = assay: Antibacterial activity against VIM1 carbapenemase producing multidrug-resistant Providencia stuartii 70 clinical isolate up to 512 mg/L by broth microtiter dilution method; type: functional, organism-based

## O=C(O)/C(S)=C/c1c(Cl)ccc(Cl)c1Cl
Escherichia coli [1]
  Activity: inactive
Klebsiella pneumoniae [2]
  fractional inhibitory concentration index (FICI): 0.09
Klebsiella pneumoniae [3]
  fractional inhibitory concentration index (FICI): 0.27
Pseudomonas aeruginosa [4]
  fractional inhibitory concentration index (FICI): 0.38
Klebsiella pneumoniae [5]
  fractional inhibitory concentration index (FICI): 0.25
Pseudomonas aeruginosa [6]
  fractional inhibitory concentration index (FICI): 0.05
Pseudomonas aeruginosa [7]
  Activity: inactive
Escherichia coli [8]
  fractional inhibitory concentration index (FICI): 0.16
Pseudomonas aeruginosa [9]
  MIC: 16 µg/mL
Pseudomonas aeruginosa [10]
  fractional inhibitory concentration index (FICI): 0.75
Pseudomonas aeruginosa [11]
  fractional inhibitory concentration index (FICI): 0.38
Pseudomonas aeruginosa [12]
  MIC: 16 µg/mL
Pseudomonas aeruginosa [13]
  fractional inhibitory concentration index (FICI): 0.25
Escherichia coli [14]
  survival at 4.8 mg/kg: 69%
Pseudomonas aeruginosa [15]
  MIC: 2 µg/mL
Pseudomonas aeruginosa [16]
  fractional inhibitory concentration index (FICI): 0.38
Klebsiella oxytoca
  Activity: inactive
Klebsiella pneumoniae [17]
  MIC: 4 µg/mL
Enterobacter cloacae [18]
  fractional inhibitory concentration index (FICI): 0.19
Klebsiella pneumoniae [19]
  fractional inhibitory concentration index (FICI): 0.09
Klebsiella pneumoniae [20]
  MIC: 2 µg/mL
Klebsiella pneumoniae [21]
  fractional inhibitory concentration index (FICI): 0.08
Klebsiella pneumoniae [22]
  MIC: 1 µg/mL
Pseudomonas aeruginosa [23]
  fractional inhibitory concentration index (FICI): 0.38
Pseudomonas aeruginosa [24]
  MIC: 8 µg/mL
Pseudomonas aeruginosa [25]
  Activity: inactive
Pseudomonas aeruginosa [26]
  fractional inhibitory concentration index (FICI): 0.09
Pseudomonas aeruginosa [27]
  MIC: 16 µg/mL
Pseudomonas aeruginosa [28]
  Activity: inactive
Providencia stuartii [29]
  Activity: inactive
Pseudomonas aeruginosa [30]
  Activity: inactive
Pseudomonas aeruginosa [31]
  Activity: inactive
Klebsiella pneumoniae [32]
  MIC: 1 µg/mL
Providencia stuartii [33]
  MIC: 1 µg/mL
Enterobacter cloacae [34]
  Activity: inactive
Providencia stuartii [35]
  Activity: inactive
